# Results taken from patent publication US6451576B1, “Sesquiterpene synthases from grand fir (Abies grandis), and methods of use” (Washington State University Research Foundation, priority 1998, dated 2002).
# Target: T1, recombinant AG1 protein (SEQ ID No:13), E-α-bisabolene synthase (Abies grandis, UniProt O81086)
# T1 construct: GST (fusion partner of vector pGEX-4T-2); made in house; host or cells: E. coli XL1-Blue/pGAG1
# T1 sequence (O81086 1-817): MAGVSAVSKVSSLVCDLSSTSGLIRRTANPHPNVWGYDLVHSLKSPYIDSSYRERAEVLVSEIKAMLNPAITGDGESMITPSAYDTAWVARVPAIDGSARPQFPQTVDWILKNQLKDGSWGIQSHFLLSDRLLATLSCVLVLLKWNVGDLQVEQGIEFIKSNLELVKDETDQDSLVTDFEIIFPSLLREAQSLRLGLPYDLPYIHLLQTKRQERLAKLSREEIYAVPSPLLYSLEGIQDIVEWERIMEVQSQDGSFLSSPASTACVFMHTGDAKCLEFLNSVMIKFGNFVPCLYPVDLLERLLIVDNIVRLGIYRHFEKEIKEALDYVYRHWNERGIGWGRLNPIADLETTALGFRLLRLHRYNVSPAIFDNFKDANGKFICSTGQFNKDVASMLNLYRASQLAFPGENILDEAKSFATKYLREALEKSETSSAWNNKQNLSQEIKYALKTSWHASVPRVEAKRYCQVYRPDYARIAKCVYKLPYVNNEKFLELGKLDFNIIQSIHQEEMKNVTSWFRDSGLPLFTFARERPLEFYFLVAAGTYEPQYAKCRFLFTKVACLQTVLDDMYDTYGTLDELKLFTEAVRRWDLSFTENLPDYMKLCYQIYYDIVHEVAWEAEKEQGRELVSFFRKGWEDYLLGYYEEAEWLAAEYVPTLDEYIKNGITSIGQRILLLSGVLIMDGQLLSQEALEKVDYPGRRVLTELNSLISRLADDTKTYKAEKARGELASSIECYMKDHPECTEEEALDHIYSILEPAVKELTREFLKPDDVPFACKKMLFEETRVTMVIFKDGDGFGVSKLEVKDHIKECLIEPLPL
# Assay: Monoterpene, sesquiterpene and diterpene synthase assays of recombinant AG1 protein expressed in E. coli
# Type: biochemical
# Conditions: extracts of XL1-Blue/pGAG1, 31° C., 2 h
# Protocol: Expression of cDNA Clone AG1 (SEQ ID No:12) in E. coli. Plasmid pGAG1 was transformed into E. coli XL1-Blue (Sambrook, J., et al., (1989) Molecular Cloning: A Laboratory Manual (Cold Spring Harbor Lab., Cold Spring Harbor, N.Y.), 2nd Ed). The resulting bacterial strain E. coli XL1-Blue/pGAG1 was grown at 37° C. in 5 ml of LB medium (Sambrock, J., et al., (1989) Molecular Cloning. A Laboratory Manual (Cold Spring Harbor Lab., Cold Spring Harbor, N.Y.), 2nd Ed) supplemented with 100 μg ampicillin/ml and 12.5 μg tetracycline/ml to A600=1.0, then induced by addition of 1 mM isopropyl-1-thio-β-D-galactopyranoside and grown for another 12 h at 20° C. Cells were harvested by centrifugation (2000×g, 10 min) and resuspended in either 1 ml monoterpene synthase assay buffer, 1 ml sesquiterpene synthase assay buffer, or 1 ml diterpene synthase assay buffer (Bohlmann, J., et al., J. Biol. Chem. 272:21784-21792(1997)). […]
# Characterization of Products of Recombinant E-α-Bisabolene Synthase Encoded by cDNA Clone AG1 (SEQ ID No:12) in E. coli. […] Mass spectra were compared to those of authentic standards and analyzed by Hewlett-Packard Chemstation software. […]
compound,measurement,value
"CC(C)=CCC/C(C)=C/COP(=O)(O)OP(=O)(O)O [geranyl diphosphate, reference compound]",conversion of substrate to terpene olefin,inefficiently converted
"CC(C)=CCC/C(C)=C/CC/C(C)=C/CC/C(C)=C/COP(=O)(O)OP(=O)(O)O [geranylgeranyl diphosphate, reference compound]",conversion of substrate to terpene olefin,no diterpene synthase activity
